Results on 14 molecules are retold here after patent US7052724B2, “Method of producing active dry yeast” (Suntory Limited, priority 2001, dated 2006).

This data set relates to recovered yeast (slurry yeast recovered from the beer fermentation step). In words: Methylene Blue staining ratio (mortality) of yeast before drying or after drying and reconstitution with water. The class given is cell-based. The settings on record: for Elevating the survival ratio of the yeast after reconstitution with water, similar to glycerol: as substitute for glycerol; for Elevating the survival ratio of the dry yeast after reconstitution with water, similar to trehalose: as substitute for trehalose; for Ratio of the dead cells after drying and reconstitution with water: 5% of trehalose. How it is done: 50 g of a 20% aqueous solution of trehalose was added to 50 g of the recovered yeast and the resultant mixture was stirred at 20° C. for 3 hours to thereby incorporate the trehalose into the yeast cells. Then the yeast having trehalose thus incorporated was filtered under suction on a filter paper No.2 with the use of a Nutsche filter. The obtained yeast was then passed through a 14-mesh sieve and dried in a thermostat at 30° C. for about 20 hours to give a dry yeast. 0.1 g of this dry yeast was suspended and reconstituted in 1 ml of distilled water at room temperature. Then the mortality of the yeast was measured by the Methylene Blue staining method. Since dead cells could not reduce Methylene Blue, the cells stained with Methylene Blue were regarded as dead cells. Thus, the Methylene Blue staining ratio could be referred to as the mortality. […] Thus, trehalose was incorporated as in Example 1 and then the yeast was dried. […]
To 50 g of the slurry yeast recovered from the beer fermentation step, 50 g of an aqueous trehalose solution (concentration: about 20%) was added. After stirring at 20° C. for 3 hours, the yeast was centrifuged, suspended in 50 g portions of 300 g/L aqueous solutions of various sugar alcohols and maintained at room temperature for 15 minutes. Subsequently, the yeast was filtered under suction on a filter paper No.2 as in Example 2. The obtained yeast was passed through a 14-mesh sieve and dried in a thermostat at 5° C. for about 20 hours. The dry yeast thus obtained was reconstituted with water as in Example 2 and stained with Methylene Blue to measure the mortality of the yeast.
To 50 g of the slurry yeast recovered from the beer fermentation step, 50 g of an aqueous trehalose solution (concentration: about 20%) was added. After stirring at 20° C. for 3 hours, the yeast was centrifuged, suspended in 50 g of an about 300 g/L aqueous glycerol solution and maintained at room temperature for 15 minutes. Subsequently, the yeast was filtered under suction on a filter paper No.2 as in Example 2. The obtained yeast was passed through a 14-mesh sieve and dried in a thermostat at 5° C. to 30° C. for about 20 hours. Alternatively, the yeast was dried by using a fluidized bed dryer at 30° C. for 1 hour. Each of the dry yeast thus obtained was rehydrated with water as in Example 2 and stained with Methylene Blue to measure the mortality of the yeast.

Setting [1] is: glycerol 100 g/L after trehalose-treatment.
Where [2] appears, read: glycerol 150 g/L after trehalose-treatment.
Setting [3] is: glycerol 200 g/L after trehalose-treatment.
Where [4] appears, read: glycerol 300 g/L after trehalose-treatment.
The mark [5] stands for this setting: trehalose-treatment, then 300 g/L sugar alcohol as substitute for glycerol, 15 minutes, dried at 5° C.
Setting [6] is: sugar/sugar alcohol (about 20% solution, 20° C., 3 hours) as substitute for trehalose, then 300 g/L glycerol, dried at 5° C.
The mark [7] stands for this setting: trehalose-treatment as in Example 2, after rehydration with water.

Regarding `OCC(O)CO` [Glycerol, glycerol], the “Methylene Blue-staining ratio, after reconstitution with water after drying and storing at 25° C. for 8 days” value reads like this: under setting [1], 59.8%; under setting [2], 62.3%; under setting [3], 40.2%; under setting [4], 48.5%. Moreover, the “Methylene Blue-staining ratio, before drying” value worked out at 20.8% under setting [1]; 66.7% under setting [2]; 97.8% under setting [3]; 99.6% under setting [4]; 95.8% (trehalose-treatment then 300 g/L aqueous glycerol, 15 minutes). Further, the “Methylene Blue-staining ratio, immediately after drying/reconstitution with water” value runs as follows: (glycerol 100 g/L after trehalose-treatment, dried at 5° C.) 30.8%; (glycerol 150 g/L after trehalose-treatment, dried at 5° C.) 23.7%; (glycerol 200 g/L after trehalose-treatment, dried at 5° C.) 26.3%; (glycerol 300 g/L after trehalose-treatment, dried at 5° C.) 26.2%. For the same molecule, under “trehalose-treatment then 300 g/L aqueous glycerol, 15 minutes, dried at 5° C.”, the “Methylene Blue-staining ratio, after drying/reconstitution with water” value is listed as 18.3%. Further, the “Methylene Blue-staining ratio (%) after reconstitution with water” value (shortened to “Methylene Blue-staining ratio (%)”) under setting [5] was 24.4%.

`OC[C@H]1O[C@H](O[C@H]2[C@H](O)[C@@H](O)[C@H](O)O[C@@H]2CO)[C@H](O)[C@@H](O)[C@@H]1O` [Maltose]: the “Methylene Blue-staining ratio (%)” value under setting [6] came out at 56.4%.

Turning to `OC[C@@H](O)[C@@H](O[C@H]1O[C@H](CO)[C@@H](O)[C@H](O)[C@H]1O)[C@H](O)[C@@H](O)CO` [Maltitol], the “Elevating the survival ratio of the yeast after reconstitution with water, similar to glycerol” value is given as “effective” and the “Elevating the survival ratio of the dry yeast after reconstitution with water, similar to trehalose” value (“Elevating the survival ratio … to trehalose” for short) is “effective”. Further, under setting [6], the “Methylene Blue-staining ratio (%)” value is 29.7%. Also, the “Methylene Blue-staining ratio (%)” value under setting [5] came to 30.1%.

With `OC1OC[C@@H](O[C@@H]2OC[C@@H](O)[C@H](O)[C@H]2O)[C@H](O)[C@H]1O` (some centres unmarked) [Xylobiose], the “Methylene Blue-staining ratio (%)” value under setting [6] is listed as 46.5%.

In the case of `OC[C@H]1O[C@H](O[C@H]2O[C@H](CO)[C@@H](O)[C@H](O)[C@H]2O)[C@H](O)[C@@H](O)[C@@H]1O` [Trehalose, trehalose], the “Ratio of the dead cells after drying and reconstitution with water” value reads like this: (10° C., 1 or 3 hours) “about 60%”; (10° C., 21 hours) “about 90%”. Also, the “Methylene Blue-staining ratio” value is reported as 8.97 (before drying, treated with 5% trehalose, 10° C., 1 Hrs); 8.45 (before drying, treated with 5% trehalose, 10° C., 3 Hrs); 11.88 (before drying, treated with 5% trehalose, 10° C., 21 Hrs); 6.58 (before drying, treated with 5% trehalose, 20° C., 1 Hrs); 7.51 (before drying, treated with 5% trehalose, 20° C., 3 Hrs); 16.44 (before drying, treated with 5% trehalose, 20° C., 21 Hrs). For the same molecule, the “Methylene Blue-staining ratio” value by setting is: (before drying, treated with 10% trehalose, 10° C., 1 Hrs) 6.36; (before drying, treated with 10% trehalose, 10° C., 3 Hrs) 8.67; (before drying, treated with 10% trehalose, 10° C., 21 Hrs) 17.68; (before drying, treated with 10% trehalose, 20° C., 1 Hrs) 8.26; (before drying, treated with 10% trehalose, 20° C., 3 Hrs) 9.24; (before drying, treated with 10% trehalose, 20° C., 21 Hrs) 8.90. The “Methylene Blue-staining ratio” value (immediately after reconstitution with water (dried at 30° C.), 5% trehalose, 10° C., 1 Hrs) turned out to be 63.72; the “Methylene Blue-staining ratio” value (immediately after reconstitution with water (dried at 30° C.), 5% trehalose, 10° C., 3 Hrs) is 63.40; the “Methylene Blue-staining ratio” value (immediately after reconstitution with water (dried at 30° C.), 5% trehalose, 10° C., 21 Hrs) came to 90.11; the “Methylene Blue-staining ratio” value (immediately after reconstitution with water (dried at 30° C.), 5% trehalose, 20° C., 1 Hrs) came out at 64.95; the “Methylene Blue-staining ratio” value (immediately after reconstitution with water (dried at 30° C.), 5% trehalose, 20° C., 3 Hrs) is 84.17; the “Methylene Blue-staining ratio” value (immediately after reconstitution with water (dried at 30° C.), 5% trehalose, 20° C., 21 Hrs) is on record as 92.47. Further, the “Methylene Blue-staining ratio” value (immediately after reconstitution with water (dried at 30° C.), 10% trehalose, 10° C., 1 Hrs) is listed as 69.51; the “Methylene Blue-staining ratio” value (immediately after reconstitution with water (dried at 30° C.), 10% trehalose, 10° C., 3 Hrs) came out at 64.95; the “Methylene Blue-staining ratio” value (immediately after reconstitution with water (dried at 30° C.), 10% trehalose, 10° C., 21 Hrs) amounted to 79.33; the “Methylene Blue-staining ratio” value (immediately after reconstitution with water (dried at 30° C.), 10% trehalose, 20° C., 1 Hrs) is on record as 62.15; the “Methylene Blue-staining ratio” value (immediately after reconstitution with water (dried at 30° C.), 10% trehalose, 20° C., 3 Hrs) is 62.04; the “Methylene Blue-staining ratio” value (immediately after reconstitution with water (dried at 30° C.), 10% trehalose, 20° C., 21 Hrs) stood at 87.43. Besides, under setting [6], the “Methylene Blue-staining ratio (%)” value is on record as 32.2%. For the same molecule, under setting [7], the “Mortality (%) after drying at 30° C.” value is on record as 73.4%. Moreover, the “Mortality (%) after drying at 50° C.” value under setting [7] amounted to 58.0%.

With `OC[C@@H](O)[C@H](O)[C@@H](O)CO` [Xylitol], the “Elevating the survival ratio of the yeast after reconstitution with water, similar to glycerol” value was “effective”. Further, the “Methylene Blue-staining ratio (%)” value under setting [6] came out at 41.6%. For the same molecule, under setting [5], the “Methylene Blue-staining ratio (%)” value was found to be 30.4%.

Turning to `OC[C@H]1O[C@@](CO)(O[C@H]2O[C@H](CO)[C@@H](O)[C@H](O)[C@H]2O)[C@@H](O)[C@@H]1O` [Sucrose], the “Methylene Blue-staining ratio (%)” value under setting [6] turned out to be 51.9%.

With `O=C[C@H](O)[C@@H](O)[C@H](O)CO` [Xylose], the “Elevating the survival ratio … to trehalose” value was “effective”. In addition, the “Methylene Blue-staining ratio (%)” value under setting [6] is on record as 37.7%.

As to `OC[C@@H](O)[C@@H](O)[C@H](O)[C@H](O)CO` [Mannitol], the “Elevating the survival ratio … to trehalose” value is “effective”. Besides, under setting [6], the “Methylene Blue-staining ratio (%)” value worked out at 37.1%. Also, the “Methylene Blue-staining ratio (%)” value under setting [5] worked out at 47.5%.

As to `O=C[C@H](O)[C@@H](O)[C@H](O[C@@H]1O[C@H](CO)[C@@H](O)[C@H](O)[C@H]1O)[C@H](O)CO` [Cellobiose], under setting [6], the “Methylene Blue-staining ratio (%)” value is listed as 54.8%.

As for `O=C(CO)[C@@H](O)[C@H](O)[C@H](O)CO` [Fructose], the “Methylene Blue-staining ratio (%)” value under setting [6] is listed as 51.1%.

Consider `O=C[C@H](O)[C@@H](O)[C@@H](O)[C@H](O)CO` [Galactose], for which the “Methylene Blue-staining ratio (%)” value under setting [6] was 40.6%.

Consider `OC[C@H]1O[C@@H](O[C@H]2[C@H](O)[C@@H](O)C(O)O[C@@H]2CO)[C@H](O)[C@@H](O)[C@H]1O` (some centres unmarked) [Lactose], for which the “Methylene Blue-staining ratio (%)” value under setting [6] came out at 38.6%.

Regarding `OC[C@@H](O)[C@@H](O)[C@H](O)[C@@H](O)CO` [Sorbitol], the “Methylene Blue-staining ratio (%)” value is, setting by setting: under setting [6], 41.8%; under setting [5], 41.2%.
